Reference: patent publication EP0774465A1, “Penem derivatives and antimicrobial agents containing the same” (priority 1995, dated 1997)
≈ marks a conversion by molar mass, not a printed value. Read-outs that look alike come from different tables or passages of the source.

Key:
[1] = system: Escherichia coli NIHJ JC-2; experiment: General antibacterial activity (MIC) against Escherichia coli NIHJ JC-2; type: cell-based; conditions: for MIC: Escherichia coli; for antibacterial activities (MIC): NIHJ JC-2, 10^6 cfu/mℓ
Source text: (§1) With respect to compounds (I) of the present invention obtained as described above, their general antibacterial activities and their antibacterial activities (MIC) against various methicillin-resistant strains of Staphylococcus aureus (methicillin-resistant Staphylococcus aureus: MRSA) were investigated. The results will be shown in Table 1, in which the test compounds are indicated by the numbers of their working examples to be described subsequently. Further, as the general antibacterial activities, those of Staphylococcus aureus 209P JC-1 and Escherichia coli NIHJ JC-2 were used.
(§2) (The unit for the figures in the table is µg/mℓ.)

MRSA 31 = experiment: Antibacterial activity (MIC) against MRSA 31; type: cell-based, methicillin-resistant Staphylococcus aureus; conditions: for MIC: Staphylococcus aureus, MRSA, read-out: antibacterial activities (MIC)
Source text: as §1, §2

[2] = system: Staphylococcus aureus 209P JC-1; experiment: General antibacterial activity (MIC) against Staphylococcus aureus 209P JC-1; type: cell-based; conditions: for MIC: Staphylococcus aureus, read-out: antibacterial activities (MIC)
Source text: as §1, §2

MRSA 33 = experiment: Antibacterial activity (MIC) against MRSA 33; type: cell-based, methicillin-resistant Staphylococcus aureus; conditions: for MIC: Staphylococcus aureus, MRSA, read-out: antibacterial activities (MIC)
Source text: as §1, §2

[3] = NIHJJC2, NIHJ JC-2, 10^6 cfu/mℓ, read-out: antibacterial activities (MIC)

Row | Molecule | MIC [1, 3] [µg/mL] | MIC ([2]; 209P JC-1, 10^6 cfu/mℓ) [µg/mL] | MIC (MRSA 31; MRSA 31, 10^6 cfu/mℓ) [µg/mL] | MIC (MRSA 33; MRSA 33, 10^6 cfu/mℓ) [µg/mL] | also measured
1 | C[C@H](F)[C@H]1C(=O)N2C(C(=O)O)=C(SC3CCN(c4ccccc4)C3)S[C@H]12 (single isomer, unassigned) [Ex. 107 (Isomer A)] | > 25 | 0.1 (≈ 0.253 µM) |  |  | antibacterial activities (MIC) (MRSA 31; MRSA 31, 10^6 cfu/mℓ): 1.56 µg/mL; antibacterial activities (MIC) (MRSA 33; MRSA 33, 10^6 cfu/mℓ): 1.56 µg/mL
2 | C[C@H](F)[C@H]1C(=O)N2C(C(=O)O)=C(SC3CCN(c4ccccc4)C3)S[C@H]12 (single isomer, unassigned) [Ex. 107 (Isomer B)] |  |  |  |  | antibacterial activities (MIC) [1]: 50 µg/mL; antibacterial activities (MIC) (MRSA 31; MRSA 31, 10^6 cfu/mℓ): 3.13 µg/mL; antibacterial activities (MIC) ([2]; 209P JC-1, 10^6 cfu/mℓ): 0.1 µg/mL; antibacterial activities (MIC) (MRSA 33; MRSA 33, 10^6 cfu/mℓ): 3.13 µg/mL
3 | C[C@H](O)[C@@H]1C(=O)N2C(C(=O)O)=C(SCC(=O)NCc3ccccc3)S[C@H]12 [Ex. 13, (5R,6R)-2-(N-benzylcarbamoylmethyl)thio-6-((S)-1-hydroxyethyl)penem-3-carboxylic acid] | 3.13 (≈ 7.93 µM) | 0.39 (≈ 0.989 µM) | 12.5 (≈ 31.7 µM) | 12.5 (≈ 31.7 µM) | 
4 | CSC1=C(C(=O)O)N2C(=O)[C@@H]([C@H](C)O)[C@H]2S1 [Ex. 40, (5R,6R)-6-((S)-1-hydroxyethyl)-2-methylthiopenem-3-carboxylic acid] | 0.39 (≈ 1.49 µM) | 0.39 (≈ 1.49 µM) | 12.5 (≈ 47.8 µM) | 12.5 (≈ 47.8 µM) | 
5 | CCSC1=C(C(=O)O)N2C(=O)[C@@H]([C@H](C)O)[C@H]2S1 [Ex. 41, (5R,6R)-6-((S)-1-hydroxyethyl)-2-ethylthiopenem-3-carboxylic acid] | 0.2 (≈ 0.726 µM) | 0.2 (≈ 0.726 µM) | 12.5 (≈ 45.4 µM) | 12.5 (≈ 45.4 µM) | 
6 | C[C@H](O)[C@@H]1C(=O)N2C(C(=O)O)=C(SCc3ccccc3)S[C@H]12 [Ex. 42, (5R,6R)-6-((S)-1-hydroxyethyl)-2-benzylthiopenem-3-carboxylic acid] | 6.25 (≈ 18.5 µM) | 0.1 (≈ 0.296 µM) | 3.13 (≈ 9.28 µM) | 3.13 (≈ 9.28 µM) | 
7 | C[C@H](O)[C@@H]1C(=O)N2C(C(=O)O)=C(SCCc3ccccc3)S[C@H]12 [Ex. 43, (5R,6R)-6-((S)-1-hydroxyethyl)-2-phenethylthiopenem-3-carboxylic acid] | 12.5 (≈ 35.6 µM) | 0.2 (≈ 0.569 µM) | 6.25 (≈ 17.8 µM) | 6.25 (≈ 17.8 µM) | 
8 | CCCSC1=C(C(=O)O)N2C(=O)[C@@H]([C@H](C)O)[C@H]2S1 [Ex. 46, (5R,6R)-6-((S)-1-hydroxyethyl)-2-propylthiopenem-3-carboxylic acid] | 0.78 (≈ 2.7 µM) | 0.39 (≈ 1.35 µM) | 12.5 (≈ 43.2 µM) | 12.5 (≈ 43.2 µM) | 
9 | CC(C)SC1=C(C(=O)O)N2C(=O)[C@@H]([C@H](C)O)[C@H]2S1 [Ex. 47, (5R,6R)-6-((S)-1-hydroxyethyl)-2-(1-methylethyl)thiopenem-3-carboxylic acid] | 0.2 (≈ 0.691 µM) | 0.2 (≈ 0.691 µM) | 12.5 (≈ 43.2 µM) | 12.5 (≈ 43.2 µM) | 
10 | C[C@H](O)[C@@H]1C(=O)N2C(C(=O)O)=C(SCCF)S[C@H]12 [Ex. 48, (5R,6R)-6-((S)-1-hydroxyethyl)-2-(2-fluoroethyl)thiopenem-3-carboxylic acid] |  |  |  |  | MIC ([1]; NIHJJC2, read-out: antibacterial activities (MIC)): 0.1 µg/mL (≈ 0.341 µM); MIC (MRSA 31): 12.5 µg/mL (≈ 42.6 µM); MIC ([2]; 209P): 0.2 µg/mL (≈ 0.682 µM); MIC (MRSA 33): 12.5 µg/mL (≈ 42.6 µM)
11 | C[C@H](O)[C@@H]1C(=O)N2C(C(=O)O)=C(SC3Cc4ccccc4C3)S[C@H]12 [Ex. 71, (5R,6R)-6-((S)-1-hydroxyethyl)-2-(2-indanyl)thiopenem-3-carboxylic acid] | 6.25 (≈ 17.2 µM) | 0.05 (≈ 0.138 µM) | 3.13 (≈ 8.61 µM) | 1.56 (≈ 4.29 µM) | 
12 | C[C@H](O)[C@@H]1C(=O)N2C(C(=O)O)=C(SCCc3ccccn3)S[C@H]12 [Ex. 73, (5R,6R)-6-((S)-1-hydroxyethyl)-2-[2-(2-pyridyl)ethyl]thiopenem-3-carboxylic acid] | 0.78 (≈ 2.21 µM) | 0.05 (≈ 0.142 µM) | 6.25 (≈ 17.7 µM) | 6.25 (≈ 17.7 µM) | 
13 | C[C@H](O)[C@@H]1C(=O)N2C(C(=O)O)=C(SCc3ccc4ccccc4c3)S[C@H]12 [Ex. 76, (5R,6R)-6-((S)-1-hydroxyethyl)-2-(2-naphthyl)methylthiopenem-3-carboxylic acid] | 12.5 (≈ 32.3 µM) | 0.1 (≈ 0.258 µM) | 3.13 (≈ 8.08 µM) | 3.13 (≈ 8.08 µM) | 
14 | C[C@H](O)[C@@H]1C(=O)N2C(C(=O)O)=C(S[C@H]3CCN(CCF)C3)S[C@H]12 [Ex. 79, (5R,6R)-6-((S)-l-hydroxyethyl)-2-[(S)-1-(2-fluoroethyl)pyrrolidin-3-yl]thiopenem-3-carboxylic acid] | 0.1 (≈ 0.276 µM) | 0.1 (≈ 0.276 µM) | 6.25 (≈ 17.2 µM) | 6.25 (≈ 17.2 µM) | 
15 | C[C@H](O)[C@@H]1C(=O)N2C(C(=O)O)=C(SC3CCc4ccccc43)S[C@H]12 (stereo partly drawn) [Ex. 81, (5R,6R)-6-((S)-1-hydroxyethyl)-2-(1-indanyl)thiopenem-3-carboxylic acid] | 6.25 (≈ 17.2 µM) | 0.1 (≈ 0.275 µM) | 3.13 (≈ 8.61 µM) | 3.13 (≈ 8.61 µM) | 
16 | C[C@H](O)[C@@H]1C(=O)N2C(C(=O)O)=C(S[C@H]3CCN(CC(=O)c4ccccc4)C3)S[C@H]12 [Ex. 88, (5R,6R)-6-((S)-1-hydroxyethyl)-2-[(S)-1-(2-oxo-2-phenylethyl)pyrrolidin-3-ylthio]penem-3-carboxylic acid] | 0.39 (≈ 0.898 µM) | 0.2 (≈ 0.46 µM) | 6.25 (≈ 14.4 µM) | 6.25 (≈ 14.4 µM) | 
17 | CC(=N)N1CC[C@H](SC2=C(C(=O)O)N3C(=O)[C@@H]([C@H](C)O)[C@H]3S2)C1 [Ex. 89, (5R,6R)-6-((S)-1-hydroxyethyl)-2-[(S)-1-(1-iminoethyl)pyrrolidin-3-ylthio]penem-3-carboxylic acid] | 0.39 (≈ 1.09 µM) | 0.1 (≈ 0.28 µM) | 6.25 (≈ 17.5 µM) | 6.25 (≈ 17.5 µM) | 
18 | C[C@H](O)[C@@H]1C(=O)N2C(C(=O)O)=C(S[C@@H]3CN[C@H](CO)C3)S[C@H]12 [Ex. 94, (5R,6R)-6-((S)-1-hydroxyethyl)-2-[(2S,4S)-2-hydroxymethylpyrrolidin-4-ylthio]penem-3-carboxylic acid] | 0.2 (≈ 0.577 µM) | 0.1 (≈ 0.289 µM) | 6.25 (≈ 18 µM) | 6.25 (≈ 18 µM) | 
19 | CC(=N)N1CC[C@H](SC2=C(C(=O)O)N3C(=O)[C@H]([C@H](C)F)[C@H]3S2)C1 [Ex. 106, (5R,6R)-6-((S)-1-fluoroethyl)-2-[(S)-1-(1-iminoethyl)pyrrolidin-3-ylthio]penem-3-carboxylic acid] | 1.56 (≈ 4.34 µM) | 0.05 (≈ 0.139 µM) | 3.13 (≈ 8.71 µM) | 3.13 (≈ 8.71 µM) | 
20 | (5R,6R)-6-((S)-1-fluoroethyl)-2-methylthiopenem-3-carboxylic acid [Ex. 99] |  |  |  |  | antibacterial activities (MIC) [1]: 0.78 µg/mL; antibacterial activities (MIC) (MRSA 31; MRSA 31, 10^6 cfu/mℓ): 6.25 µg/mL; antibacterial activities (MIC) ([2]; 209P JC-1, 10^6 cfu/mℓ): 0.1 µg/mL; antibacterial activities (MIC) (MRSA 33; MRSA 33, 10^6 cfu/mℓ): 6.25 µg/mL
